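Compound exposure: 48 hours, 5 concentrations, 96-well plates. GI50 marks 50% less growth. The concentration for full growth arrest is given as TGI.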

Some test systems named below: A549 NSCLC; DU-145 prostate; HCC-2998 colon; K-562 leukemia; KM12 colon; NCI-H522 lung; RPMI-8226 leukemia; SW-620 colon; UACC-62 melanoma; CAKI-1 renal.
What all share (assay): growth of human tumour cells (NCI), 48 h

With `O=C(O)[C@@H]1C2CC([C@@H]1C(=O)O)[C@H](N1C(=O)CCC1=O)[C@@H]2Br` (some centres undefined), the TGI with A549 NSCLC, in the assay with DU-145 prostate, in the assay with HCC-2998 colon, in the assay on K-562 leukemia, in the assay on KM12 colon and in the assay on NCI-H522 lung was above 100 µM each time. In addition, the TGI in the assay with RPMI-8226 leukemia, with SW-620 colon and in the assay with UACC-62 melanoma was above 100 µM in each case.
As for `CCCN(Cc1ccc(F)cc1)c1ccc(CO)c(Cl)c1`, the GI50 is 2.12 µM in the assay on A549 NSCLC; 1.47 µM in the assay with CAKI-1 renal; 13.3 µM in the assay on DU-145 prostate; 8.9 µM with HCC-2998 colon; 2.22 µM with K-562 leukemia; 13 µM in the assay with KM12 colon. Moreover, the GI50 in the assay on NCI-H522 lung is 9.5 µM; in the assay with RPMI-8226 leukemia, 1.91 µM; with SW-620 colon, 1.07 µM; in the assay with UACC-62 melanoma it was 0.167 µM. In addition, the TGI with A549 NSCLC was 16.5 µM; in the assay with CAKI-1 renal, 13.6 µM; with DU-145 prostate, 26.5 µM; in the assay on HCC-2998 colon, 22.5 µM; in the assay with K-562 leukemia, 15.2 µM; in the assay with KM12 colon, 27.3 µM. The TGI is 22.6 µM with NCI-H522 lung, 14 µM in the assay on RPMI-8226 leukemia, 15.6 µM in the assay with SW-620 colon and 0.907 µM with UACC-62 melanoma.
In the case of `COc1ccc(Cn2nc(-c3cc(OC)c(OC)c(OC)c3)c3c2CCc2cnoc2-3)cc1OC`, the GI50 was 6.27 µM in the assay on A549 NSCLC; 13.2 µM in the assay on DU-145 prostate; 5.85 µM with HCC-2998 colon; 3.89 µM in the assay on KM12 colon; 3.17 µM in the assay with NCI-H522 lung; 2.69 µM in the assay on RPMI-8226 leukemia. The GI50 is 3.98 µM with SW-620 colon and 3.78 µM in the assay with UACC-62 melanoma. The TGI is above 100 µM in the assay on A549 NSCLC; above 100 µM in the assay on DU-145 prostate; above 100 µM in the assay on HCC-2998 colon; 37.6 µM in the assay with KM12 colon; above 100 µM in the assay on NCI-H522 lung; 23 µM in the assay on RPMI-8226 leukemia. In addition, the TGI in the assay on SW-620 colon was above 100 µM; in the assay with UACC-62 melanoma it was 56.5 µM.
`CC1=C(C(=O)OCc2ccccc2)C(c2ccc3c(c2)OCO3)n2c(nc3ccccc32)N1` (centres undefined): the GI50 with A549 NSCLC was 0.69 µM; in the assay on CAKI-1 renal it was 0.275 µM; in the assay with DU-145 prostate, 0.488 µM; in the assay on HCC-2998 colon, above 33.2 µM; with K-562 leukemia, 0.276 µM; with KM12 colon, 0.334 µM. Also, the GI50 with NCI-H522 lung was 0.164 µM; in the assay with SW-620 colon, 0.346 µM; with UACC-62 melanoma, 0.513 µM. The TGI in the assay on A549 NSCLC, in the assay with CAKI-1 renal, in the assay on DU-145 prostate, with HCC-2998 colon, in the assay on K-562 leukemia and in the assay on KM12 colon was above 100 µM in each case. Further, the TGI in the assay with NCI-H522 lung is above 57.6 µM; in the assay with SW-620 colon it was above 100 µM; in the assay with UACC-62 melanoma, above 100 µM.
For `CC12CCC(=O)C=C1CCC1C2CCC2(C)C(C(=O)Cn3cnc4c(=S)nc[nH]c43)CCC12` (centres undefined), the TGI in the assay on A549 NSCLC was above 100 µM; with CAKI-1 renal it was above 100 µM; with DU-145 prostate, 66.4 µM; in the assay with K-562 leukemia, above 100 µM; in the assay on KM12 colon, above 100 µM; in the assay on NCI-H522 lung it was above 100 µM. The TGI in the assay with RPMI-8226 leukemia, in the assay on SW-620 colon and in the assay on UACC-62 melanoma was above 100 µM each time.
For `CC(=O)OC1c2ccccc2CC2(OC(C)=O)c3ccccc3C12` (centres undefined), the TGI with A549 NSCLC, with CAKI-1 renal, with DU-145 prostate, in the assay on HCC-2998 colon, with K-562 leukemia and in the assay with KM12 colon was above 100 µM each time. The TGI with RPMI-8226 leukemia, in the assay on SW-620 colon and with UACC-62 melanoma was above 100 µM each time.
For the molecule `O=C(O)CS(=O)(=O)C(c1ccccc1)c1ccccc1`, the TGI in the assay on A549 NSCLC, in the assay on CAKI-1 renal, with DU-145 prostate, in the assay with K-562 leukemia, in the assay with KM12 colon and in the assay with NCI-H522 lung was above 100 µM throughout. Besides, the TGI with RPMI-8226 leukemia, with SW-620 colon and in the assay with UACC-62 melanoma was above 100 µM throughout.
On to `c1ccc2nc(Cn3c[n+](Cc4ccc5ccccc5n4)c4ccccc43)ccc2c1`, for which the GI50 with A549 NSCLC is 11.6 µM; with DU-145 prostate, 4.55 µM; in the assay with HCC-2998 colon, 2.76 µM; with K-562 leukemia it was 1.25 µM; in the assay with KM12 colon, 1.61 µM; in the assay on NCI-H522 lung, 1.56 µM. Besides, the GI50 in the assay on RPMI-8226 leukemia is 0.681 µM; with SW-620 colon it was 3.3 µM; in the assay with UACC-62 melanoma it was 1.34 µM. The TGI was 25.9 µM in the assay on A549 NSCLC; 17 µM in the assay with DU-145 prostate; 13.6 µM with HCC-2998 colon; 11.8 µM in the assay with K-562 leukemia; 4.54 µM with KM12 colon; 9.72 µM in the assay on NCI-H522 lung. The values for the TGI with RPMI-8226 leukemia, in the assay with SW-620 colon and in the assay with UACC-62 melanoma were 4.05 µM, 15.4 µM and 3.51 µM, respectively.
Turning to `Cc1cc(N2CCCCC2)nc(N(CCNc2ccnc3cc(Cl)ccc23)Cc2ccco2)n1`, the GI50 in the assay with A549 NSCLC is 2.69 µM; in the assay with DU-145 prostate it was 2.87 µM; with HCC-2998 colon, 2.14 µM; in the assay with K-562 leukemia, 1.54 µM; in the assay with KM12 colon, 2.07 µM; with NCI-H522 lung it was 1.61 µM. Moreover, the GI50 is 2 µM in the assay with RPMI-8226 leukemia, 1.53 µM with SW-620 colon and 1.74 µM with UACC-62 melanoma. For the same molecule, the TGI in the assay with A549 NSCLC worked out at 7.74 µM; in the assay with DU-145 prostate, 9.2 µM; with HCC-2998 colon it was 4.48 µM; in the assay on K-562 leukemia, 4.03 µM; in the assay with KM12 colon, 4.71 µM; in the assay on NCI-H522 lung it was 3.52 µM. Further, the TGI with RPMI-8226 leukemia was 4.55 µM; in the assay on SW-620 colon it was 3.08 µM; in the assay with UACC-62 melanoma, 3.34 µM.
As for `N#CC(C#N)=Cc1ccc(-c2ccc(-c3nc4ccccc4s3)cc2)o1`, the GI50 in the assay on A549 NSCLC was 14.3 µM; in the assay on CAKI-1 renal, 25 µM; with DU-145 prostate it was 18.2 µM; with HCC-2998 colon, 18.9 µM; in the assay on K-562 leukemia, 27.4 µM; in the assay with KM12 colon, 16.9 µM. The GI50 in the assay with NCI-H522 lung was 17.8 µM; in the assay on SW-620 colon, 7.9 µM; in the assay on UACC-62 melanoma, 21.7 µM. Further, the TGI was 38.5 µM with A549 NSCLC; above 100 µM in the assay with CAKI-1 renal; 78.2 µM with DU-145 prostate; 45.1 µM in the assay on HCC-2998 colon; above 100 µM in the assay with K-562 leukemia; above 100 µM with KM12 colon. Besides, the TGI was 51.8 µM in the assay on NCI-H522 lung, above 100 µM in the assay on SW-620 colon and 70.3 µM with UACC-62 melanoma.
